Reference: patent US20030219482A1, “Multiparticulate compositions for once-a-day administration” (priority 2002, published 2003)
Structures can show the parent of a compound that is named as a salt.

Assay: Drug release (dissolution) of the controlled release tablets, USP apparatus Type I
Assay type: physicochemical
Details: 900 ml phosphate buffer pH 7.5, USP Type I basket 100 rpm, Example tablet
Method: The tablets were characterized for drug release in 900 ml of phosphate buffer of pH 7.5. The USP apparatus Type I with basket speed at 100 rpm was used for the study. The samples of the media were periodically withdrawn and analyzed for drug content.

Row | Cumulative percent drug released (1 hour) | Cumulative percent drug released (2 hours) | Cumulative percent drug released (3 hours) | Cumulative percent drug released (4 hours) | Cumulative percent drug released (5 hours) | Cumulative percent drug released (6 hours) | Cumulative percent drug released (8 hours) | Cumulative percent drug released (10 hours) | Cumulative percent drug released (12 hours) | Cumulative percent drug released (15 hours) | Cumulative percent drug released (18 hours) | Cumulative percent drug released (21 hours) | Cumulative percent drug released (24 hours) | SMILES
1 | 28.83% | 49.59% | 64.74% | 78.09% | 88.49% | 93.26% | 97.29% | 100.01% | 103.93% | 105.57% | 105.92% | 105.99% | 106.47% | CN(C)C(=N)N=C(N)N [Metformin Hydrochloride, Metformin hydrochloride]
2 | 6.5% | 16.6% | 27.1% | 33.9% | 41.5% | 47.3% | 55.4% | 67.9% | 75.2% | 85.8% | 93.0% | 99.4% | 102.5% | Cc1cnc(C(=O)NCCc2ccc(S(=O)(=O)NC(=O)NC3CCCCC3)cc2)cn1 [Glipizide]
